Assay results published in the NIST ThermoML archive (doi:10.1016/j.jct.2019.05.021).

Key:
[1] = 100 kPa, Liquid; for viscosity: Falling or rolling sphere viscometry; for mass density: Vibrating tube method
[2] = xn = mol fraction of the nth substance listed; details: 100 kPa, Liquid, x1 = 1; for viscosity: Falling or rolling sphere viscometry; for mass density: Vibrating tube method

CCCCCCCCCCCC(=O)OC [methyl dodecanoate]
[1]
Details	mass density [kg/m3]	viscosity [mPa·s]
293.15 K	869.3	3.151
298.15 K	865.39	2.792
303.15 K	861.46	2.504
308.15 K	857.53	2.263
313.15 K	853.61	2.049
318.15 K	849.69	1.875
323.15 K	845.76	1.729

CC1CCCCC1 [methylcyclohexane] + CCCCCCCCCC(=O)OC
[2]
Details	mass density [kg/m3]	viscosity [mPa·s]
293.15 K	769.38	0.733
298.15 K	765.06	0.681
303.15 K	760.71	0.638
308.15 K	756.35	0.599
313.15 K	751.98	0.563
318.15 K	747.59	0.533
323.15 K	743.19	0.505

CC1CCCCC1 [methylcyclohexane]
[1]
Details	mass density [kg/m3]	viscosity [mPa·s]
293.15 K	769.38	0.733
298.15 K	765.06	0.681
303.15 K	760.71	0.638
308.15 K	756.35	0.599
313.15 K	751.98	0.563
318.15 K	747.59	0.533
323.15 K	743.19	0.505

CCCCCCCCCC(=O)OC [methyl decanoate]
[1]
Details	mass density [kg/m3]	viscosity [mPa·s]
293.15 K	872.25	2.125
298.15 K	868.16	1.909
303.15 K	864.06	1.738
308.15 K	859.96	1.588
313.15 K	855.85	1.453
318.15 K	851.74	1.341
323.15 K	847.62	1.245

CC1CCCCC1 [methylcyclohexane] + CCCCCCCCCCCCCC(=O)OC
[2]
Details	mass density [kg/m3]	viscosity [mPa·s]
293.15 K	769.38	0.733
298.15 K	765.06	0.681
303.15 K	760.71	0.638
308.15 K	756.35	0.599
313.15 K	751.98	0.563
318.15 K	747.59	0.533
323.15 K	743.19	0.505

CCCCCCCCCCCCCC(=O)OC [methyl tetradecanoate]
[1]
Details	mass density [kg/m3]	viscosity [mPa·s]
293.15 K	867.17	4.557
298.15 K	863.35	3.979
303.15 K	859.54	3.519
308.15 K	855.74	3.093
313.15 K	851.94	2.797
318.15 K	848.14	2.544
323.15 K	844.34	2.308

CC1CCCCC1 [methylcyclohexane] + CCCCCCCCCCCC(=O)OC
[2]
Details	mass density [kg/m3]	viscosity [mPa·s]
293.15 K	769.38	0.733
298.15 K	765.06	0.681
303.15 K	760.71	0.638
308.15 K	756.35	0.599
313.15 K	751.98	0.563
318.15 K	747.59	0.533
323.15 K	743.19	0.505
